Assays:
Type in all cases: in vivo
Setaria viridis (SETVI) = assay: greenhouse post-emergence herbicidal efficacy against SETVI
Outline: (§1)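 Percent control is a visual rating relative to untreated plants, taken 14 and 21 days after a 300 L/ha post-emergence spray of either the herbicidal compositions or the individual actives. Plants were grown from seed in 8 cm pots of sandy loam in the greenhouse.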

[1] = tested on: Amaranthus retroflexus (AMARE); assay: greenhouse post-emergence herbicidal efficacy against AMARE
Protocol: (§2) All trials whose results are shown were conducted in a greenhouse by the methodology specified below. The effect of the inventive herbicidal compositions was examined on the following harmful plants 14 and 21 days after application:
(§3) Echinochloa crus-galli (ECHCG), Eleusine indica (ELEIN), Setaria viridis (SETVI), Amaranthus retroflexus (AMARE), Chenopodium album (CHEAL), Kochia scoparia (KCHSC), Solanum nigrum (SOLNI), Avena fatua (AVEFA), Bromus sterilis (BROST), Lolium multiflorum (LOLMU), Phalaris minor (PHAMI), Poa annua (POAAN), Galium aparine (GALAP), Matricaria inodora (MATIN) and Polygonum convolvulus (POLCO).
(§4) The harmful plant seeds were sown in pots (diameter 8 cm) with sandy loam soil and germinated under optimal conditions. The inventive herbicidal compositions or the active ingredients alone were applied post-emergence to the planted pots with a spray volume of 300 L/ha. The trial was conducted in a greenhouse under optimum growth conditions. The herbicidal effects were assessed visually by comparison of untreated and treated plants. The percentages mean: 0%=no effects, 100%=the plants die off completely). The percentages are used to calculate interactions between individual treatments and combination treatments according to S. R. Colby, Weeds 15, pages 20 to 22 (1967).
(§5) The abbreviations mean: • a.i.=active ingredient • E^C=expected value according to Colby (E^C=A+B−A×B/100) • Diff: =difference (%) of measured value from expected value (%) (measured value minus expected value)
(§6) Assessment: • measured value E is greater than E^C:->synergism (+ diff.) • measured value E equals E^C:->additive effect • measured value E is smaller than E^C:->antagonism(− diff.)

[2] = tested on: Chenopodium album (CHEAL); assay: greenhouse post-emergence herbicidal efficacy against CHEAL
Outline: as §1

Kochia scoparia (KCHSC) = assay: greenhouse post-emergence herbicidal efficacy against KCHSC
Protocol: as §2, §3, §4, §5, §6

Solanum nigrum (SOLNI) = assay: greenhouse post-emergence herbicidal efficacy against SOLNI
Protocol: as §2, §3, §4, §5, §6

DIGSA = assay: greenhouse post-emergence herbicidal efficacy against DIGSA
Protocol: as §2, §4, §5, §6

[3] = tested on: Echinochloa crus-galli (ECHCG); assay: greenhouse post-emergence herbicidal efficacy against ECHCG
Outline: as §1

Eleusine indica (ELEIN) = assay: greenhouse post-emergence herbicidal efficacy against ELEIN
Outline: as §1

Avena fatua (AVEFA) = assay: greenhouse post-emergence herbicidal efficacy against AVEFA
Outline: (§7)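 In the greenhouse, herbicidal compositions and their individual active ingredients are applied post-emergence at 300 L/ha. Damage is scored by eye against untreated controls on a 0–100% scale at 14 and 21 days.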

Bromus sterilis (BROST) = assay: greenhouse post-emergence herbicidal efficacy against BROST; conditions: 21 days after application
Outline: as §7

[4] = tested on: Lolium multiflorum (LOLMU); assay: greenhouse post-emergence herbicidal efficacy against LOLMU
Outline: as §7

[5] = tested on: Polygonum convolvulus (POLCO); assay: greenhouse post-emergence herbicidal efficacy against POLCO
Outline: as §7

Phalaris minor (PHAMI) = assay: greenhouse post-emergence herbicidal efficacy against PHAMI
Outline: as §7

Poa annua (POAAN) = assay: greenhouse post-emergence herbicidal efficacy against POAAN
Outline: as §7

Galium aparine (GALAP) = assay: greenhouse post-emergence herbicidal efficacy against GALAP; conditions: for Efficacy: 14 days after application
Outline: as §7

[6] = tested on: Matricaria inodora (MATIN); assay: greenhouse post-emergence herbicidal efficacy against MATIN; conditions: 14 days after application
Outline: as §7

[7] = 21 days after application; 20 g of a.i./ha
[8] = 14 days after application, 5 g of a.i./ha
[9] = 14 days after application, 20 g of a.i./ha
[10] = 21 days after application, 5 g of a.i./ha
[11] = 21 days after application, 20 g of a.i./ha
[12] = 14 days after application; 5 g of a.i./ha
[13] = 14 days after application; 20 g of a.i./ha
[14] = 21 days after application; 5 g of a.i./ha
[15] = 21 days after application, 0.5 g of a.i./ha
[16] = 21 days after application, 2 g of a.i./ha
[17] = 14 days after application, 0.5 g of a.i./ha
[18] = 14 days after application, 2 g of a.i./ha
[19] = 14 days after application, g of a.i./ha: A1-7 2.5, saflufenacil 2
[20] = 14 days after application, g of a.i./ha: A1-7 2.5, saflufenacil 8
[21] = 14 days after application, 0.1 g of a.i./ha
[22] = 14 days after application, 0.4 g of a.i./ha
[23] = 21 days after application, 0.1 g of a.i./ha
[24] = 21 days after application, 0.4 g of a.i./ha
[25] = 21 days after application; 0.1 g of a.i./ha
[26] = 21 days after application; 0.4 g of a.i./ha
[27] = 14 days after application, 10 g of a.i./ha
[28] = 21 days after application, g of a.i./ha: A1-13 2.5, indaziflam 40
[29] = 21 days after application, g of a.i./ha: A1-13 2.5, mesosulfuron-methyl 10
[30] = 21 days after application, g of a.i./ha: A1-13 10, indaziflam 40
[31] = 21 days after application, g of a.i./ha: A1-13 10, mesosulfuron-methyl 10
[32] = g of a.i./ha: A1-13 10, indaziflam 10
[33] = 14 days after application, 2.5 g of a.i./ha
[34] = 21 days after application, dosage 10 g of a.i./ha
[35] = g of a.i./ha: A1-13 2.5, indaziflam 10

CCOC(=O)[C@@H](C)Oc1ccc(Oc2nc3ccc(Cl)cc3o2)cc1 [fenoxaprop-P-ethyl]
30%: Efficacy (DIGSA; [8])
10%: Efficacy (DIGSA; [10])
80%: Efficacy (Setaria viridis (SETVI); [7])
0%: Efficacy [1, 8] | Efficacy [1, 9] | Efficacy [2, 8] | Efficacy [2, 9] | Efficacy [2, 10] | Efficacy [2, 11] | Efficacy (Kochia scoparia (KCHSC); [12]) | Efficacy (Kochia scoparia (KCHSC); [13]) | Efficacy (Kochia scoparia (KCHSC); [7]) | Efficacy (Solanum nigrum (SOLNI); [8]) | Efficacy (Solanum nigrum (SOLNI); [9]) | Efficacy (Solanum nigrum (SOLNI); [10]) | Efficacy (Solanum nigrum (SOLNI); [11])

CSc1nnc(C(C)(C)C)c(=O)n1N [metribuzin]
30%: Efficacy [3, 13] | Efficacy (Setaria viridis (SETVI); [13]) | Efficacy [1, 9] | Efficacy [2, 8] | Efficacy [2, 9]
10%: Efficacy [3, 12] | pest or weed control at 5 g/ha (Eleusine indica (ELEIN); Eleusine indica, post-emergence, 336 h; 14 days after application, 5 g of a.i./ha) | Efficacy (Setaria viridis (SETVI); [12]) | Efficacy [1, 11] | Efficacy (Kochia scoparia (KCHSC); [7])
20%: pest or weed control at 20 g/ha (Eleusine indica (ELEIN); Eleusine indica, post-emergence, 336 h; 14 days after application, 20 g of a.i./ha) | Efficacy [1, 8] | Efficacy [2, 10] | Efficacy [2, 11] | Efficacy (Kochia scoparia (KCHSC); [12]) | Efficacy (Kochia scoparia (KCHSC); [13]) | Efficacy (DIGSA; [9])
0%: Efficacy [3, 14] | Efficacy [3, 7] | pest or weed control at 5 g/ha (Eleusine indica (ELEIN); Eleusine indica, post-emergence, 504 h; 21 days after application; 5 g of a.i./ha) | pest or weed control at 20 g/ha (Eleusine indica (ELEIN); Eleusine indica, post-emergence, 504 h; 21 days after application; 20 g of a.i./ha) | Efficacy (Setaria viridis (SETVI); [14]) | Efficacy (Setaria viridis (SETVI); [7]) | Efficacy [1, 10] | Efficacy (Kochia scoparia (KCHSC); [14]) | Efficacy (Solanum nigrum (SOLNI); [8]) | Efficacy (Solanum nigrum (SOLNI); [9]) | Efficacy (Solanum nigrum (SOLNI); [10]) | Efficacy (Solanum nigrum (SOLNI); [11]) | Efficacy (DIGSA; [8])

CCS(=O)(=O)c1c(C(F)(F)F)ccc(C(=O)Nc2nnc(C)o2)c1Cl [A1-7]
0%: Efficacy [2, 17] | Efficacy (Kochia scoparia (KCHSC); [17]) | Efficacy (Solanum nigrum (SOLNI); [15]) | Efficacy [4, 19] | Efficacy [4, 20] | Efficacy ([5]; 21 days after application, g of a.i./ha: A1-7 2.5, saflufenacil 2) | Efficacy ([5]; 21 days after application, g of a.i./ha: A1-7 2.5, saflufenacil 8)
30%: Efficacy (Setaria viridis (SETVI); [15]) | Efficacy [1, 17]
10%: Efficacy [2, 15] | Efficacy (Kochia scoparia (KCHSC); [15]) | Efficacy (Solanum nigrum (SOLNI); [17]) | Efficacy (Solanum nigrum (SOLNI); [16]) | Efficacy [5, 19] | Efficacy [5, 20] | Efficacy ([5]; 21 days after application, g of a.i./ha: A1-7 10, saflufenacil 2) | Efficacy ([5]; 21 days after application, g of a.i./ha: A1-7 10, saflufenacil 8) | Efficacy (DIGSA; [16])
5%: Efficacy (Bromus sterilis (BROST); g of a.i./ha: A1-7 10, saflufenacil 8)
15%: Efficacy (Avena fatua (AVEFA); [19])
25%: Efficacy ([5]; 14 days after application, g of a.i./ha: A1-7 10, saflufenacil 2) | Efficacy ([5]; 14 days after application, g of a.i./ha: A1-7 10, saflufenacil 8)
75%: Efficacy (Setaria viridis (SETVI); [16])
50%: Efficacy [2, 18]
20%: Efficacy [2, 16] | Efficacy (Solanum nigrum (SOLNI); [18]) | Efficacy (DIGSA; [18])

Cc1nnc(NC(=O)c2ccc(C(F)(F)F)c(S(C)(=O)=O)c2C)o1 [A1-13]
20%: Efficacy (Eleusine indica (ELEIN); [22]) | Efficacy (Solanum nigrum (SOLNI); [22]) | Efficacy (Phalaris minor (PHAMI); [30]) | Efficacy (Phalaris minor (PHAMI); [31]) | Efficacy (Poa annua (POAAN); [33]) | Efficacy against POAAN (Poa annua (POAAN); [34])
50%: Efficacy (Galium aparine (GALAP); 10 g of a.i./ha) | Efficacy (Galium aparine (GALAP); g of a.i./ha: A1-13 10, indaziflam 40)
10%: Efficacy (Eleusine indica (ELEIN); [24]) | Efficacy (Eleusine indica (ELEIN); [26]) | Efficacy (Setaria viridis (SETVI); [22]) | Efficacy (Setaria viridis (SETVI); [24]) | Efficacy (Setaria viridis (SETVI); [26]) | Efficacy [1, 24] | Efficacy [2, 22] | Efficacy (Solanum nigrum (SOLNI); [21]) | Efficacy (Solanum nigrum (SOLNI); [24]) | Efficacy (Poa annua (POAAN); [29])
3%: Efficacy (Avena fatua (AVEFA); [30]) | Efficacy (Avena fatua (AVEFA); [31])
0%: Efficacy [3, 21] | Efficacy [3, 22] | Efficacy [3, 23] | Efficacy [3, 24] | Efficacy [3, 25] | Efficacy [3, 26] | Efficacy (Eleusine indica (ELEIN); [23]) | Efficacy (Eleusine indica (ELEIN); [25]) | Efficacy (Setaria viridis (SETVI); [21]) | Efficacy (Setaria viridis (SETVI); [23]) | Efficacy (Setaria viridis (SETVI); [25]) | Efficacy [1, 22] | Efficacy [2, 21] | Efficacy [2, 23] | Efficacy (Kochia scoparia (KCHSC); [21]) | Efficacy (Kochia scoparia (KCHSC); [22]) | Efficacy (Kochia scoparia (KCHSC); [24]) | Efficacy (Kochia scoparia (KCHSC); [25]) | Efficacy (Kochia scoparia (KCHSC); [26]) | Efficacy (Avena fatua (AVEFA); [28]) | Efficacy (Avena fatua (AVEFA); [29]) | Efficacy (Bromus sterilis (BROST); g of a.i./ha: A1-13 2.5, mesosulfuron-methyl 2.5) | Efficacy (Bromus sterilis (BROST); g of a.i./ha: A1-13 2.5, mesosulfuron-methyl 10) | Efficacy [5, 29] | Efficacy [5, 31] | Efficacy (DIGSA; [22])
35%: Efficacy (Avena fatua (AVEFA); [27])
5%: Efficacy (Bromus sterilis (BROST); [32]) | Efficacy (Bromus sterilis (BROST); g of a.i./ha: A1-13 10, mesosulfuron-methyl 10) | Efficacy ([4]; 21 days after application, g of a.i./ha: A1-13 10, indaziflam 10) | Efficacy [4, 31]
60%: Efficacy against GALAP (Galium aparine (GALAP); [34])
15%: Efficacy (Phalaris minor (PHAMI); [28]) | Efficacy (Phalaris minor (PHAMI); 21 days after application, g of a.i./ha: A1-13 2.5, mesosulfuron-methyl 2.5) | Efficacy (Phalaris minor (PHAMI); [29])
30%: Efficacy (Phalaris minor (PHAMI); [33]) | Efficacy (Phalaris minor (PHAMI); [27]) | Efficacy (Phalaris minor (PHAMI); 14 days after application, g of a.i./ha: A1-13 2.5, indaziflam 40) | Efficacy (Phalaris minor (PHAMI); 14 days after application, g of a.i./ha: A1-13 10, indaziflam 40) | Efficacy ([6]; 2.5 g of a.i./ha) | Efficacy [6, 35]
40%: Efficacy (Poa annua (POAAN); [27]) | Efficacy (Galium aparine (GALAP); [35]) | Efficacy ([6]; 10 g of a.i./ha) | Efficacy [6, 32]
